Test results taken from ChEMBL document CHEMBL5143615, “Novel 2-aryl-4-aryloxyquinoline-based fungistatics for Mucor circinelloides. Biological evaluation of activity, QSAR and docking study” (Bioorg Med Chem Lett, 2022).

Key:
Format in all cases: functional
Design in all cases: scale not given: the % may be the effect or the level left
[1] = test system: Mucor circinelloides; test: Antifungal activity against Mucor circinelloides R7B wild type strain assessed as reduction in spore germination at 100 ug/ml relative to control; conditions: dose 100 µg/ml
[2] = test system: Mucor circinelloides; test: Antifungal activity against Mucor circinelloides M5 strain assessed as reduction in spore germination at 100 ug/ml relative to control; conditions: dose 100 µg/ml
[3] = test system: Mucor circinelloides; test: Antifungal activity against Mucor circinelloides R7B wild type strain assessed as reduction in spore germination at 50 ug/ml relative to control; conditions: dose 50 µg/ml
[4] = test system: Mucor circinelloides; test: Antifungal activity against Mucor circinelloides M5 strain assessed as reduction in spore germination at 50 ug/ml relative to control; conditions: dose 50 µg/ml
[5] = test system: Mucor circinelloides; test: Antifungal activity against Mucor circinelloides M5 strain assessed as reduction in spore germination at 25 ug/ml relative to control; conditions: dose 25 µg/ml
[6] = test system: Mucor circinelloides; test: Antifungal activity against Mucor circinelloides R7B wild type strain assessed as reduction in spore germination at 150 ug/ml relative to control; conditions: dose 150 µg/ml
[7] = test system: Mucor circinelloides; test: Antifungal activity against Mucor circinelloides R7B wild type strain assessed as reduction in spore germination at 25 ug/ml relative to control; conditions: dose 25 µg/ml
[8] = test system: Mucor circinelloides; test: Antifungal activity against Mucor circinelloides M5 strain assessed as reduction in spore germination at 150 ug/ml relative to control; conditions: dose 150 µg/ml

Compound	Activity [1] [%]	Activity [2] [%]	Activity [3] [%]	Activity [4] [%]	Activity [5] [%]	Activity [6] [%]	Activity [7] [%]	Activity [8] [%]
c1ccc(Oc2cc(-c3ccccc3)nc3ccccc23)cc1	97.4	97.9	–	–	–	–	–	–
COc1cc(-c2cccc(C(F)(F)F)c2)nc2ccccc12	88.9	89.7	–	–	–	–	–	–
O=[N+]([O-])c1ccc(Oc2cc(-c3cccc(Cl)c3)nc3ccccc23)cc1	32.7	21.9	–	–	–	–	–	–
O=[N+]([O-])c1ccc(Oc2cc(-c3ccccc3)nc3ccccc23)cc1	98.1	98.2	–	–	–	–	–	–
c1ccc(Oc2cc(-c3ccc4c(c3)OCO4)nc3ccccc23)cc1	28.2	29.5	47.6	52.8	69.7	21.6	74.2	23.4
O=[N+]([O-])c1ccc(Oc2cc(-c3ccc(Cl)c(Cl)c3)nc3ccccc23)cc1	83.9	85.9	–	–	–	–	–	–
COc1cc(-c2ccc(Cl)cc2)nc2ccccc12	98.1	97.3	–	–	–	–	–	–
